This passage reports EC50 results from ChEMBL document CHEMBL5729210, “Benzodiazepine derivatives as RSV inhibitors” (2022).

The nature of the test: RSV-A Assay: The description is Japanese.
Regarding `CCCc1nnc(NC2N=C(c3ccccc3)c3ccccc3NC2=O)o1` (stereo not drawn), the EC50 was over 800 nM.
The molecule `COC[C@H]1CCCN1c1sc(C(F)(F)F)nc1-c1nnc(N[C@H]2N=C(c3ccccc3)c3ccccc3NC2=O)o1` gave an EC50 of over 800 nM.
As to `O=C1Nc2ccccc2C(c2ccccc2)=NC1Nc1nc2cc(F)ccc2o1` (stereo not drawn), the EC50 is over 800 nM.
As to `O=C1Nc2ccccc2C(c2ccccc2)=NC1Nc1nnc(-c2nc(Br)sc2N2CCOCC2)o1` (stereo not drawn), the EC50 was under 400 nM.
On to `Cc1cc(-c2nnc(NC3N=C(c4ccccc4)c4ccccc4NC3=O)o2)ccc1N1CCOCC1` (stereo not drawn), for which the EC50 result is “in the range around 600 nM”.
To `O=C1Nc2ccccc2C(c2ccccc2)=NC1Nc1nnc(-c2ccc(N3CCOCC3)cc2)o1` (stereo not drawn) belongs under 400 nM.
`O=C1Nc2ccccc2C(c2ccccc2)=NC1Nc1nnc(-c2cccc(-n3ccnc3)c2)o1` (stereo not drawn): the EC50 was over 800 nM.
On to `O=C1Nc2ccccc2C(c2ccccc2)=N[C@@H]1Nc1nnc(-c2ncc(C(F)(F)F)cc2N2CCOC3CC32)o1` (stereo partly drawn), for which the EC50 was under 400 nM.
Regarding `O=C1Nc2ccccc2C(c2ccccc2)=NC1Nc1nnc(C2CC2)o1` (stereo not drawn), the EC50 is over 800 nM.
The molecule `O=C1Nc2ccccc2C(c2ccccc2)=N[C@H]1Nc1nnc(-c2ccccc2N2CCOCC2)o1` displayed an EC50 of over 800 nM.
Then `O=C1Nc2ccccc2C(c2ccccc2)=NC1Nc1nnc(-c2ccc(Cl)o2)o1` (stereo not drawn), with over 800 nM.
Then `CCc1nc(-c2nnc(N[C@H]3N=C(c4ccccc4)c4ccccc4NC3=O)o2)c(N2CCOCC2)s1`, with under 400 nM.
In the case of `COc1ccc(CN2C(=O)C(Nc3ccc(-c4ccccc4)nn3)N=C(c3ccccc3)c3ccccc32)cc1` (stereo not drawn), the EC50 result is “in the range around 600 nM”.
To `O=C1Nc2ccccc2C(c2ccccc2)=N[C@@H]1Nc1nnc(-c2ncsc2C2=CCOCC2)o1` belongs under 400 nM; to `O=C1Nc2ccccc2C(c2ccccc2)=NC1Nc1nnc(-c2ccccc2)[nH]1` (stereo not drawn), over 800 nM.
In the case of `O=C1Nc2ccccc2C(c2ccccc2)=NC1Nc1nnc(-c2ccc(C(F)(F)F)cn2)o1` (stereo not drawn), the EC50 is over 800 nM.
As for `CCOC(=O)c1cnn2c1N(CCOC)CCC2`, the EC50 entry is “in the range around 600 nM”.
To `COC1CN(c2cc(C(F)(F)F)cnc2-c2nnc(N[C@H]3N=C(c4ccccc4)c4ccccc4NC3=O)o2)C1` belongs over 800 nM.
With `O=C1Nc2ccccc2C(c2ccccc2)=NC1Nc1nnc(-c2ccc(-n3cncn3)c(F)c2)o1` (stereo not drawn), the EC50 entry is “in the range around 600 nM”.
Then `O=C1Nc2ccccc2C(c2ccccc2)=NC1Nc1nnc(C2CC(F)(F)C2)o1` (stereo not drawn), with over 800 nM; and `O=C1Nc2ccccc2C(c2ccccc2)=N[C@@H]1Nc1nnc(-c2ncc(C(F)(F)F)cc2N[C@H]2CC[C@H]2O)o1`, with over 800 nM.
Then `O=C1Nc2ccccc2C(c2ccccc2)=N[C@@H]1Nc1nnc(-c2cn(CC(F)(F)F)nc2N2CCOCC2)o1`, with over 800 nM; and `O=C1Nc2ccccc2C(c2ccccc2)=NC1Nc1nnc(-c2cccc(C(F)(F)F)c2)o1` (stereo not drawn), with over 800 nM.
In the case of `N#Cc1ccc(-c2nnc(NC3N=C(c4ccccc4)c4ccccc4NC3=O)o2)s1` (stereo not drawn), the EC50 was under 400 nM.
To `O=C1Nc2ccccc2C(c2ccccc2)=N[C@@H]1Nc1nnc(-c2cnn(-c3ccccc3)c2)o1` belongs “in the range around 600 nM”.
In turn, `COCCOC(=O)c1nc2ccccc2n1CCOC` showed an EC50 of over 800 nM.
As to `Cc1nc(-c2nnc(NC3N=C(c4ccccc4)c4ccccc4NC3=O)o2)ccc1C#N` (stereo not drawn), the EC50 entry was “in the range around 600 nM”.
Then `COCc1cccc(-c2nnc(NC3N=C(c4ccccc4)c4ccccc4NC3=O)o2)n1` (stereo not drawn), with over 800 nM.
To `O=C1Nc2ccccc2C(c2ccccc2)=N[C@@H]1Nc1nnc(-c2ncc(C(F)(F)F)cc2N2CCC(O)CC2)o1` belongs over 800 nM.
With `O=C1Nc2ccccc2C(c2ccccc2)=N[C@@H]1Nc1nnc(-c2ncc(C(F)(F)F)cc2N2CCOc3ccccc32)o1`, the EC50 is over 800 nM.
The molecule `O=C1Nc2ccccc2C(c2ccccc2)=NC1Nc1nnc(C23CCN(CC2)CC3)o1` (stereo not drawn) showed an EC50 of over 800 nM.
For `CC1(c2nc(-c3nnc(N[C@H]4N=C(c5ccccc5)c5ccccc5NC4=O)o3)c(N3CCOCC3)s2)CCC1`, the EC50 was under 400 nM.
In the case of `O=C1Nc2ccccc2C(c2ccccc2)=NC1Nc1nnc(-c2ccc(=O)[nH]c2)o1` (stereo not drawn), the EC50 is over 800 nM.
On to `O=C1Nc2ccccc2C(c2ccccc2)=NC1Nc1nnc(-c2ccc(N3CCCC3)cc2)o1` (stereo not drawn), for which the EC50 result was “in the range around 600 nM”.
The molecule `CCOC(=O)c1ncccc1N1CCOCC1` gave an EC50 of under 400 nM.
As to `O=C1Nc2ccccc2C(c2ccccc2)=NC1Nc1nnc(C2CCCC2)o1` (stereo not drawn), the EC50 is over 800 nM.
As to `O=C1Nc2ccccc2C(c2ccccc2)=NC1Nc1nnc([C@@H]2CCCN2C2CCNCC2)o1` (stereo partly drawn), the EC50 is over 800 nM.
With `O=C1Nc2ccccc2C(c2ccccc2)=N[C@@H]1Nc1nnc(-c2cnc(N3CCOCC3)nc2)o1`, the EC50 result is “in the range around 600 nM”.
`O=C1Nc2ccccc2C(c2ccccc2)=N[C@@H]1Nc1nnc(-c2ncc(C3CC3)cc2N2CC3CCC(C2)O3)o1` gave an EC50 of under 400 nM.
Molecule `O=C1Nc2ccccc2C(c2ccccc2)=NC1Nc1nnc(-c2cccc(F)c2)o1` (stereo not drawn) had an EC50 of over 800 nM.
`O=C1Nc2ccccc2C(c2ccccc2)=NC1Nc1nnc(-c2ccc(F)cc2F)o1` (stereo not drawn) returned an EC50 of over 800 nM.
The molecule `CC(C)(C)c1nnc(NC2N=C(c3ccccc3)c3ccccc3NC2=O)o1` (stereo not drawn) gave an EC50 of over 800 nM.
Molecule `O=C1Nc2ccccc2C(c2ccccc2)=N[C@@H]1Nc1nnc(-c2ccnn2-c2ccccc2)o1` came in with an EC50 of over 800 nM.
For `O=C1Nc2ccccc2C(c2ccccc2)=N[C@@H]1Nc1nnc(-c2cccnc2N2CCOCC2)o1`, the EC50 was under 400 nM.
For the molecule `CS(=O)(=O)Cc1nnc(NC2N=C(c3ccccc3)c3ccccc3NC2=O)o1` (stereo not drawn), the EC50 was over 800 nM.
To `O=C1Nc2ccccc2C(c2ccccc2)=N[C@@H]1Nc1nnc(-c2ncc(C(F)(F)F)cc2N[C@H]2CCC[C@H]2O)o1` belongs “in the range around 600 nM”.
In turn, `O=C1Nc2ccccc2C(c2ccccc2)=NC1Nc1nnc(-c2ncco2)o1` (stereo not drawn) came in with an EC50 of over 800 nM.
`O=C1Nc2ccccc2C(c2ccccc2)=N[C@@H]1Nc1nnc(-c2nc3ccccc3nc2N2CCOCC2)o1` showed an EC50 of under 400 nM.
The molecule `O=C1Nc2ccccc2C(c2ccccc2)=N[C@@H]1Nc1nnc(-c2nsnc2N2CCOCC2)o1` gave an EC50 of under 400 nM.
Turning to `COc1cc(-c2nnc(NC3N=C(c4ccccc4)c4ccccc4NC3=O)o2)ccc1-n1cnc(C)c1` (stereo not drawn), the EC50 is over 800 nM.
`N#Cc1ccc(-c2nnc(N[C@H]3N=C(c4ccccc4)c4ccccc4NC3=O)o2)c(-c2ccoc2)c1` displayed an EC50 of over 800 nM.
Take `O=C1Nc2ccccc2C(c2ccccc2)=NC1Nc1nc(Cl)ns1` (stereo not drawn): the EC50 was over 800 nM.
The molecule `N#Cc1ccc(-c2nnc(NC3N=C(c4ccccc4)c4ccccc4NC3=O)o2)c(N2CCOCC2)c1` (stereo not drawn) registered an EC50 of under 400 nM.
In turn, `COc1cccc(-c2nnc(NC3N=C(c4ccccc4)c4ccccc4NC3=O)o2)n1` (stereo not drawn) came in with an EC50 of under 400 nM.
With `CC1(Nc2cc(C(F)(F)F)cnc2-c2nnc(N[C@H]3N=C(c4ccccc4)c4ccccc4NC3=O)o2)CCOC1` (stereo partly drawn), the EC50 was over 800 nM.
As to `O=C1Nc2ccccc2C(c2ccccc2)=N[C@@H]1Nc1nnc(-c2nc(C3CC3)ccc2N2CCOCC2)o1`, the EC50 was under 400 nM.
In turn, `Cc1ccc(C(=O)O)c(N2CCOCC2)n1` had an EC50 of under 400 nM.
As for `O=C1Nc2ccccc2C(c2ccccc2)=NC1Nc1nnc(-c2ccc(C(F)(F)F)cc2N2CCOCC2)o1` (stereo not drawn), the EC50 is under 400 nM.
`N#Cc1cnc(-c2nnc(NC3N=C(c4ccccc4)c4ccccc4NC3=O)o2)c(N2CCOCC2)c1` (stereo not drawn) registered an EC50 of under 400 nM.
The molecule `COCCCc1sc(C)nc1-c1nnc(N[C@H]2N=C(c3ccccc3)c3ccccc3NC2=O)o1` came in with an EC50 of over 800 nM.
As to `O=C1Nc2ccccc2C(c2ccccc2)=NC1Nc1nnc(-c2cccnc2N2CCC(O)CC2)o1` (stereo not drawn), the EC50 is over 800 nM.
In turn, `O=C1Nc2ccccc2C(c2ccccc2)=N[C@@H]1Nc1nnc(-c2nc(-c3ccccc3F)sc2N2CCOCC2)o1` returned an EC50 of under 400 nM.
Regarding `O=C1Nc2ccccc2C(c2ccccc2)=N[C@H]1Nc1nnc(-c2nc(C(F)(F)F)sc2N2CCO[C@@H]3C[C@@H]32)o1`, the EC50 was over 800 nM.
Consider `N#Cc1ccc(-c2nnc(NC3N=C(c4ccccc4)c4ccccc4NC3=O)[nH]2)cc1` (stereo not drawn), for which the 50% effective concentration (EC50) result is “in the range around 600 nM”.
Take `CCOC(=O)c1nc2ccccn2c1N`: the EC50 is over 800 nM.
`N#Cc1ccc(-c2nnc(NC3N=C(c4ccccc4)c4ccccc4NC3=O)o2)cc1F` (stereo not drawn) yielded an EC50 of over 800 nM.
Then `Cn1nccc1-c1nnc(NC2N=C(c3ccccc3)c3ccccc3NC2=O)o1` (stereo not drawn), with over 800 nM.
In turn, `CCOC(=O)c1csc(C(F)(F)C(F)(F)F)n1` registered an EC50 of under 400 nM.
Regarding `O=C1Nc2ccccc2C(c2ccccc2)=NC1Nc1nnc(-c2ccc(F)nc2)o1` (stereo not drawn), the EC50 result was “in the range around 600 nM”.
The molecule `O=C1Nc2ccccc2C(c2ccccc2)=NC1Nc1ccc(-c2ccc(F)cc2)nn1` (stereo not drawn) had a half-maximal effective concentration (EC50) of over 800 nM.
Consider `O=C1Nc2ccccc2C(c2ccccc2)=N[C@@H]1Nc1nnc(-c2cccnc2N2CCn3ncnc3C2)o1`, for which the EC50 is over 800 nM.
Turning to `CCOC(=O)c1ncc(C(F)(F)F)cc1N`, the EC50 was over 800 nM.
With `CC(C)(O)c1nnc(NC2N=C(c3ccccc3)c3ccccc3NC2=O)o1` (stereo not drawn), the EC50 is over 800 nM.
In turn, `Cc1cc(-n2cncn2)ccc1-c1nnc(NC2N=C(c3ccccc3)c3ccccc3NC2=O)o1` (stereo not drawn) showed an EC50 of over 800 nM.
The molecule `O=C1Nc2ccccc2C(c2ccccc2)=NC1Nc1nnc(-c2ccccc2N2CCS(=O)(=O)CC2)o1` (stereo not drawn) registered an EC50 of over 800 nM.
`O=C1Nc2ccccc2C(c2ccccc2)=NC1Nc1ncc(-c2ccc(Br)cc2)o1` (stereo not drawn): the EC50 is over 800 nM.
Take `O=C1Nc2ccccc2C(c2ccccc2)=NC1Nc1nnc(-c2ccncc2)s1` (stereo not drawn): the EC50 is over 800 nM.
As to `CCOC(=O)c1nc(-c2ccc(C(F)(F)F)nc2)sc1N1CCOCC1`, the EC50 was under 400 nM.
In turn, `O=C1Nc2ccccc2C(c2ccccc2)=NC1Nc1nnc(-c2ccccc2N2CCOCC2)[nH]1` (stereo not drawn) yielded an EC50 of over 800 nM.
For `O=C1Nc2ccccc2C(c2ccccc2)=NC1Nc1nnc(-c2ccncc2)o1` (stereo not drawn), the EC50 entry was “in the range around 600 nM”.
Then `Cc1cccc(-c2nnc(NC3N=C(c4ccccc4)c4ccccc4NC3=O)o2)n1` (stereo not drawn), with over 800 nM.
As to `Cc1nnc(NC2N=C(c3ccccc3)c3ccccc3NC2=O)o1` (stereo not drawn), the EC50 was over 800 nM.
In turn, `O=C1Nc2ccccc2C(c2ccccc2)=NC1Nc1nnc(-c2ccccc2C2=CCOCC2)o1` (stereo not drawn) registered an EC50 of over 800 nM.
